Data reported in patent US20240239806A1, “COMPOUNDS, COMPOSITIONS AND METHODS OF TREATING DISORDERS” (Chengdu Anticancer Bioscience, Ltd., priority 2021, published 2024).
Where two headings read alike, the source gives them in different places.

Tested on: RPEMYC^H2B-GFP cells
Experiment: Phenotypic screening assay (mitotic arrest, polyploidy)
Type: cell-based
Conditions: 1 nM to 30 μM; for IC50: read-out: Proliferative arrest (>50%)
Method: We have previously developed a mechanism-informed phenotypic screening assay to identify novel antimitotic agents. Equipped with a prior understanding of the versatile functions of the chromosomal passenger protein (CPP) complex in orchestrating karyokinesis and cytokinesis, the screening assay is to score for phenotypes typically seen when the CPP complex is disabled. Specifically, the parameters for a positive hit are a temporary elevation of mitotic index (MI) at 24 hours of drug treatment and an accumulation of polyploid cells at 48 hours of drug treatment, indicative of mitotic arrest and cytokinetic failure respectively. These parameters exclude compounds that elicit only a prolonged arrest of cells in mitosis, a phenotype typically provoked by spindle toxins. The screening procedure is briefly summarized here. RPEMYC^H2B-GFP cells engineered to express a Histone 2B-EGFP fusion protein were passaged as batches of 96-well plates, 18-24 hours before exposure to the chemical compounds of the present disclosure at concentrations from 1 nM to 30 μM. At 24, 48 or 72 hours after initiation of treatment, cells were analyzed for either an arrest in mitosis or a change in DNA content by GE IN-Cell Analyzer 2000. As set forth in Table 2 below, a value of greater than or equal to 1 nM and less than or equal to 1.0 μM is marked “A”; a value greater than 1.00 μM and less than or equal to 10.0 μM is marked “B”; a value greater than 10.0 μM and less than or equal to 30.0 μM is marked “C”; and a value greater than 30.0 μM is marked “D.”

[1] = read-out: Min. Effective conc. for Polyploidy (≥5%)

Row | SMILES | minimal effective concentration [1] | minimal effective concentration (read-out: Mitotic Arrest (≥5%)) | IC50 | Along with Cell Death | Min. Effective conc. for Polyploidy (≥5%) | Mitotic Arrest (≥5%) | Proliferative arrest (>50%)
1 | COc1cc(OCC2CCOC2)cc(Oc2ccnc3cc(OC)c(C(N)=O)cc23)c1 (stereo not shown) [Compound 83, 7-methoxy-4-(3-methoxy-5-((tetrahydrofuran-3-yl)methoxy)phenoxy)quinoline-6-carboxamide] | 0.001 to 1 µM | 0.001 to 1 µM |  |  |  |  | 
2 | CNC(=O)c1cc(OC)cc(Oc2ccnc3cc(OC)c(C(N)=O)cc23)c1 [Compound 71, 7-Methoxy-4-(3-methoxy-5-(methylcarbamoyl)phenoxy) quinoline-6-carboxamide] | 1 to 10 µM | 1 to 10 µM | 1000 to 10000 nM |  |  |  | 
3 | COc1cc(Oc2ccnc3cc(OC)c(C(N)=O)cc23)cc(OC2CCOC2)c1 (stereo not shown) [Compound 6, 7-methoxy-4-(3-methoxy-5-((tetrahydrofuran-3-yl)oxy)phenoxy)quinoline-6-carboxamide] | 0.001 to 1 µM | 0.001 to 1 µM |  |  |  |  | 
4 | COc1cc(OC)cc(Oc2ccnc3cc(OC)c(C(N)=O)cc23)c1 [Compound 69, 4-(3,5-Dimethoxyphenoxy)-7-methoxyquinolin-6-carboxamide] | 0.001 to 1 µM | 0.001 to 1 µM | 1 to 1000 nM |  |  |  | 
5 | COc1cc(Oc2ccnc3ccc(Br)cc23)cc([N+](=O)[O-])c1 [Compound 93, 4-(3-methoxy-5-nitrophenoxy)-6-bromoquinone] | 0.001 to 1 µM | 0.001 to 1 µM |  |  |  |  | 
6 | CCOc1cc(Oc2ccnc3ccc(C(N)=O)cc23)cc(-n2cccn2)c1 [Compound 65, 4-(3-Ethoxy-5-(MH-pyrazol-1-yl)phenoxy) quinoline-6-carboxamide] | 0.001 to 1 µM | 0.001 to 1 µM | 1 to 1000 nM |  |  |  | 
7 | COc1cc(Oc2ccnc3cc(OC)c(Br)cc23)cc(-n2cccn2)c1 [Compound 88, 6-bromo-7-methoxy-4-(3-methoxy-5-(1H-pyrazol-1-yl)phenoxy)quinoline] | 0.001 to 1 µM | 0.001 to 1 µM |  |  |  |  | 
8 | COc1cc(Oc2ncnc3cc(OC)c(OC)cc23)cc(-n2cccn2)c1 [Compound 74, 4-(3-methoxy-5-(1H-pyrazol-1-yl)phenoxy)-6,7-dimethoxyquinazoline] | 10 to 30 µM | 10 to 30 µM | 10000 to 30000 nM |  |  |  | 
9 | COc1cc(NC(C)=O)cc(Oc2ccnc3ccc(I)cc23)c1 [Compound 60, N-(3-((6-iodoquinolin-4-yl)oxy)-5-methoxyphenyl) acetamide] | 0.001 to 1 µM | 0.001 to 1 µM | 1 to 1000 nM |  |  |  | 
10 | CNC(=O)c1cc2c(Oc3cc(OC)cc(-n4cccn4)c3)ccnc2cc1OC [Compound 44, 7-Methoxy-4-(3-methoxy-5-(1H-pyrazol-1-yl)phenoxy)-N-methylquinoline-6-carboxamide] | 1 to 10 µM | 1 to 10 µM | 1000 to 10000 nM |  |  |  | 
11 | CNC(=O)c1cc(OC)cc(Oc2ccnc3ccc(C(F)(F)F)cc23)c1 [Compound 70, 3-Methoxy-N-methyl-5-((6-(trifluoromethyl)quinolin-4-yl)oxy) benzamide] | 1 to 10 µM | 1 to 10 µM | 1000 to 10000 nM |  |  |  | 
12 | CCOc1cc(Oc2ccnc3ccc(Br)cc23)cc(C(=O)NC)c1 [Compound 68] | 0.001 to 1 µM | 0.001 to 1 µM | 1 to 1000 nM |  |  |  | 
13 | COc1cc(NC(C)=O)cc(Oc2ncnc3ccn(C)c23)c1 [Compound 56, N-(3-methoxy-5-((5-methyl-5H-pyrrolo[3,2-d]pyrimidin-4-yl)oxy)phenyl) acetamide] | 10 to 30 µM | 1 to 10 µM | 10000 to 30000 nM |  |  |  | 
14 | COc1cc(NC(C)=O)cc(Oc2ccnc3ccc(C(=O)O)cc23)c1 [Compound 52, 4-(3-Acetamido-5-methoxyphenoxy) quinoline-6-carboxylic acid] | 10 to 30 µM | 1 to 10 µM | 10000 to 30000 nM |  |  |  | 
15 | COc1cc(Oc2cc(Cl)nc3ccc(Br)cc23)cc([N+](=O)[O-])c1 [Compound 97, 4-(3-methoxy-5-nitrophenoxy)-6-bromo-2-chloroquinoline] | > 30 µM | > 30 µM |  |  |  |  | 
16 | CNC(=O)c1cc2c(Oc3cc(NC(C)=O)cc(OC)c3)ccnc2cc1OC [Compound 45, 4-(3-Acetamido-5-methoxyphenoxy)-7-methoxy-N-methylquinoline-6-carboxamide] | 1 to 10 µM | 1 to 10 µM | 1000 to 10000 nM |  |  |  | 

Row | SMILES | minimal effective concentration [1] | minimal effective concentration (read-out: Mitotic Arrest (≥5%)) | IC50 | Along with Cell Death | Min. Effective conc. for Polyploidy (≥5%) | Mitotic Arrest (≥5%) | Proliferative arrest (>50%)
17 | NC(=O)c1ccc2nccc(Oc3cc(Cl)cc(-n4cccn4)c3)c2c1 [Compound 2, 4-(3-chloro-5-(1H-pyrazol-1-yl)phenoxy)quinoline-6-carboxamide] | > 30 µM | > 30 µM |  |  |  |  | 
18 | COc1cc2nccc(Oc3cc(OC4CCOC4)cc(OC4CCOC4)c3)c2cc1C(N)=O (stereo not shown) [Compound 82, 4-(3,5-bis((tetrahydrofuran-3-yl)oxy)phenoxy)-7-methoxyquinoline-6-carbonamide] | 1 to 10 µM | 1 to 10 µM |  |  |  |  | 
19 | COC(=O)c1cc(OC)cc(Oc2ncnc3cc(OC)c(OC)cc23)c1 [Example 24, methyl 3-((6,7-dimethoxyquinazolin-4-yl)oxy)-5-methoxybenzoate] |  |  |  | C (a value greater than 10.0 μM and less than or equal to 30.0 μM) | C (a value greater than 10.0 μM and less than or equal to 30.0 μM) | C (a value greater than 10.0 μM and less than or equal to 30.0 μM) | C (a value greater than 10.0 μM and less than or equal to 30.0 μM)
20 | COc1cc(N)cc(Oc2ccnc3ccc(Br)cc23)c1 [Compound 91, 3-((6-bromoquinolin-4-yl)oxy)-5-methoxyaniline] | 0.001 to 1 µM | 0.001 to 1 µM |  |  |  |  | 
21 | COc1cc(Oc2ccnc3cc(OC)c(C(N)=O)cc23)cc(-c2nc(C)no2)c1 [Compound 64, 7-Methoxy-4-(3-methoxy-5-(3-methyl-1,2,4-oxadiazol-5-yl)phenoxy)quinoline-6-carboxamide] | 0.001 to 1 µM | 0.001 to 1 µM | 1 to 1000 nM |  |  |  | 
22 | Cc1cc(Oc2ccnc3ccc(C(N)=O)cc23)cc(-n2cccn2)c1 [Compound 1, 4-(3-methyl-5-(1H-pyrazol-1-yl)phenoxy)quinoline-6-carboxamide] | 0.001 to 1 µM | 0.001 to 1 µM |  |  |  |  | 
23 | CCOc1cc(Oc2ccnc3cc(OC)c(C(N)=O)cc23)cc(-n2cccn2)c1 [Compound 59, 4-(3-ethoxy-5-(1H-pyrazol-1-yl)phenoxy)-7-methoxyquinoline-6-carboxamide] | 0.001 to 1 µM | 0.001 to 1 µM | 1 to 1000 nM |  |  |  | 
24 | COc1cc(Oc2ccnc3cc(OC)c(C(N)=O)cc23)cc(-n2nc(C)cc2C)c1 [Compound 86, 4-(3-(3,5-dimethyl-1H-pyrazol-1-yl)-5-methoxyphenoxy)-7-methoxyquinoline-6-carboxamide] | 1 to 10 µM | 1 to 10 µM |  |  |  |  | 
25 | COc1cc(Oc2ccnc3cc(OC)c(C(N)=O)cc23)cc(-n2ccc(C)n2)c1 [Compound 85, 7-methoxy-4-(3-methoxy-5-(3-methyl-1H-pyrazol-1-yl)phenoxy)quinoline-6-carboxamide] | 0.001 to 1 µM | 0.001 to 1 µM |  |  |  |  | 
26 | COc1cc(Oc2ccnc3cc(OC)c(C(N)=O)cc23)cc(-c2nnc(C)o2)c1 [Compound 87, 7-methoxy-4-(3-methoxy-5-(5-methyl-1,3,4-oxadiazol-2-yl)phenoxy)quinoline-6-carboxamide] | 0.001 to 1 µM | 0.001 to 1 µM |  |  |  |  | 
27 | COc1cc(Oc2ccnc3cc(OC)c(C(N)=O)cc23)cc(O[C@H]2CCOC2)c1 [Compound 80, (S)-7-methoxy-4-(3-methoxy-5-((tetrahydrofuran-3-yl)oxy)phenoxy)quinoline-6-carboxamide] | 0.001 to 1 µM | 0.001 to 1 µM |  |  |  |  | 
28 | COc1cc(Oc2ncnc3ccccc23)cc(-n2ccnc2)c1 [Compound 78] | 1 to 10 µM | 1 to 10 µM | 1000 to 10000 nM |  |  |  | 
29 | COc1cc(OC)cc(Oc2ccnc3ccc(-c4ccco4)cc23)c1 [Compound 47, 4-(3,5-Dimethoxyphenoxy)-6-(furan-2-yl)quinoline] | 1 to 10 µM | 1 to 10 µM | 1000 to 10000 nM |  |  |  | 
30 | COc1cc(Oc2ccnc3cc(OC)c(C(N)=O)cc23)cc(-n2cc(C)cn2)c1 [Compound 84] | 0.001 to 1 µM | 0.001 to 1 µM |  |  |  |  | 
31 | CNC(=O)c1ccc2nccc(Oc3cc(NC(C)=O)cc(OC)c3)c2c1 [Compound 53, 4-(3-Acetamido-5-methoxyphenoxy)-N-methylquinoline-6-carboxamide] | 0.001 to 1 µM | 0.001 to 1 µM | 1 to 1000 nM |  |  |  | 
32 | COc1cc(OC)cc(Oc2ccnc3cc(OC)c(Br)cc23)c1 [Compound 89, 6-bromo-4-(3,5-dimethoxyphenoxy)-7-methoxyquinone] | 0.001 to 1 µM | 0.001 to 1 µM |  |  |  |  | 
